Values after ≈ are worked out from the molar mass of the structure shown.
Legend:
[1] = Human liver microsome (HLM) clearance assay; type: in vitro ADME; details: human liver microsomes 0.5 mg/mL, NADPH 1 mM, 0.5 μM compound, 40 min
Method: Example 63: Human Liver Microsome (HLM) Clearance Assay
Samples were taken out before addition of NADPH, and at 5, 10, 20 and 40 minutes thereafter and protein precipitation using cold acetonitrile with added internal standard was performed prior to centrifugation and sample analysis using compound specific LCMS/MS methods. Control incubations in buffer and without NADPH were performed in the same manner. Compound depletion was determined and apparent clearance (CLapp) was calculated.

recombinant IL-17AA = molecular target: T1, recombinant IL-17AA (Homo sapiens, UniProt Q16552); assay: Inhibition of recombinant IL-17AA-induced SEAP reporter gene activity in HEK-Blue IL-17 cells; type: cell-based; details: recombinant IL-17A 2 ng/ml, overnight
T1 construct: purchased R&D Systems 7955-IL
T1 sequence (Q16552 24-155): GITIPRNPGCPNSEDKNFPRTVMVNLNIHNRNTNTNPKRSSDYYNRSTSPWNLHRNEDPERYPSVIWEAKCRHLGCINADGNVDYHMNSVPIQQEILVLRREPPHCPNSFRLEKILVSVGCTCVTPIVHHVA
Method: Example 62: Inhibition of Recombinant IL-17AA-Induced SEAP Reporter Gene Activity in HEK-Blue™ IL-17 Cells
The assay was run according to the protocol provided by InvivoGen. Briefly, the HEK-Blue™ IL-17 cells (Invivogen, cat #hkb-il17) were suspended in the complete culture medium and seeded in a 96 well plate in a volume of 80 μl in a density of 50,000 cells per well the day before the assay. 10 μl of a solution of the test compounds were added in a serial gradient dilution to the cells followed by the addition of 10 μl IL-17A (R&D Systems cat #7955-IL) in a final concentration of 2 ng/ml. The plate was incubated overnight. The QUANTI-Blue™ solution was used to determine the SEAP activity; 180 μl QUANTI-Blue™ solution and 20 μl of the supernatant from the cell plate were mixed and incubated for 1 hour at 37 degrees Celsius. SEAP levels were measured using a spectrophotometer at 650 nm.

Solubility assay = type: physicochemical; details: 0.067 M phosphate buffer pH 6.5, 24 hours shaking, from 10 mM DMSO stock; for solubility at 24 h: aqueous buffer, kinetic from dmso stock
Method: After centrifugation, the supernatant was analyzed by HPLC-UV. The solubility was defined as the concentration of the test substance in the selected solvent. It was determined by correlation with an external standard calibration curve.

HLM Clapp [1] | EC50 (recombinant IL-17AA) | solubility at 24 h (Solubility assay) | Solubility at pH 6.5 (Solubility assay) | Structure (SMILES)
12 mL/min/kg | 11 nM | 29 µg/mL (≈ 54 µM) |  | COc1cc(-c2ccc(NC(=O)[C@@H](NC(=O)c3ccnn3C(C)C)C(C3CC3)C3CC3)nc2F)c(C)[n+]([O-])c1 [Example 1, N-[(1S)-1-(dicyclopropylmethyl)-2-[[6-fluoro-5-(5-methoxy-2-methyl-1-oxido-pyridin-1-ium-3-yl)-2-pyridyl]amino]-2-oxo-ethyl]-2-isopropyl-pyrazole-3-carboxamide]
 | 31 nM |  |  | CCc1c(-c2ccc(NC(=O)[C@@H](NC(=O)c3ccnn3C(C)C)C(C3CC3)C3CC3)nc2F)cc(OC)c[n+]1[O-] [Example 60, N-[(1S)-1-(dicyclopropylmethyl)-2-[[6-fluoro-5-(5-methoxy-2-ethyl-1-oxido-pyridin-1-ium-3-yl)-2-pyridyl]amino]-2-oxo-ethyl]-2-isopropyl-pyrazole-3-carboxamide]
18 mL/min/kg | 740 nM |  | <1 μg/mL | Cc1cc[n+]([O-])c(C)c1-c1ccc(NC(=O)[C@@H](NC(=O)c2ccnn2C(C)C)C(C2CC2)C2CC2)nc1Cl (single isomer, unassigned) [Example 57]
<8 mL/min/kg | 17 nM | 45 µg/mL (≈ 86.4 µM) |  | Cc1cc(-c2ccc(NC(=O)[C@@H](NC(=O)c3ccnn3C(C)C)C(C3CC3)C3CC3)nc2F)c(C)[n+]([O-])c1 [Example 3, N-[(1S)-1-(dicyclopropylmethyl)-2-[[5-(2,5-dimethyl-1-oxido-pyridin-1-ium-3-yl)-6-fluoro-2-pyridyl]amino]-2-oxo-ethyl]-2-isopropyl-pyrazole-3-carboxamide]
16 mL/min/kg | 4.6 nM | < 1 µg/mL |  | Cc1cc[n+]([O-])c(C)c1-c1ccc(NC(=O)[C@@H](NC(=O)c2ccnn2C(C)C)C(C2CC2)C2CC2)nc1Cl (single isomer, unassigned) [Example 56]
<9 mL/min/kg | 46 nM | 29 µg/mL (≈ 54.6 µM) |  | Cc1c(-c2ccc(NC(=O)[C@@H](NC(=O)c3ccnn3C(C)C)C(C3CC3)C3CC3)nc2F)cc(C#N)c[n+]1[O-] [Example 59, N-[(1S)-1-[[5-(5-cyano-2-methyl-1-oxido-pyridin-1-ium-3-yl)-6-fluoro-2-pyridyl]carbamoyl]-2,2-dicyclopropyl-ethyl]-2-isopropyl-pyrazole-3-carboxamide]
10 mL/min/kg | 100 nM | 14 µg/mL (≈ 23.9 µM) |  | Cc1c(-c2ccc(NC(=O)[C@@H](NC(=O)c3ccnn3C(C)C)C(C3CC3)C3CC3)nc2F)cc(S(C)(=O)=O)c[n+]1[O-] [Example 58, N-[(1S)-1-(dicyclopropylmethyl)-2-[[6-fluoro-5-(2-methyl-5-methylsulfonyl-1-oxido-pyridin-1-ium-3-yl)-2-pyridyl]amino]-2-oxo-ethyl]-2-isopropyl-pyrazole-3-carboxamide]
